From patent publication US20230391774A1, “Novel Compounds” (AC Immune SA, priority 2020, published 2023)
Structures can show the parent of a compound that is named as a salt. Where two headings read alike, the source gives them in different places.

How the values were obtained:
[1] = molecular target: T1, Tau K18 fragment aggregates (amino acids 244 to 372 of human Tau441) (Homo sapiens, UniProt P10636); assay: Tau K18 disaggregation assay by ThT; type: biochemical; conditions: ThT fluorescence; 2 μM K18 aggregates, 30 minutes at RT
T1 construct: encompassing amino acids 244 to 372 of the longest isoform (2N4R) of human Tau441; purchased Biotechne; host or cells: bacteria
T1 sequence (P10636 561-689): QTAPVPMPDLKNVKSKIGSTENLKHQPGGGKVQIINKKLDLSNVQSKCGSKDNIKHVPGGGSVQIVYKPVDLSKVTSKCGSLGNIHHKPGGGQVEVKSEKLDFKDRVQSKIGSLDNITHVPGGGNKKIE
Experimental: Tau K18 Disaggregation Assay by ThT
The Tau K18 fragment, encompassing amino acids 244 to 372 of the longest isoform (2N4R) of human Tau441, was expressed in bacteria and purified (Biotechne). For the K18 disaggregation assay by ThT, 35 μM of recombinant K18 in PBS were aggregated for 24 hours at 37° C. in presence of 25 μM of heparin (Sigma-Aldrich) and 10 mM of 1,4-Dithiothreito (DTT from Sigma-Aldrich) under shaking at 750 RPM. Compound 1 was dissolved in anhydrous dimethyl sulfoxide (DMSO, Sigma-Aldrich) to reach a concentration of 10 mM. K18 aggregates and serial dilutions of compounds were mixed together in PBS (volume 50 μL) to a final concentration of 2 μM of K18 aggregates and from 400 to 0.1 μM of Compound 1. The mixture was incubated for 30 minutes at room temperature (RT), then 40 μL of this mixture were transferred into a black 384-well plate assay (Perkin-Elmer) and mixed with 10 μL of 100 μM ThT in 250 mM glycine (both from Sigma-Aldrich) in PBS. Fluorescence (relative fluorescence units; RFU) was measured in monoplicate or duplicate on a Tecan reader (excitation: 440 nm; emission: 485 nm). Percentage of K18 disaggregation was then calculated and half maximal effective concentration (EC50) was determined using GraphPad Prism version 8 (GraphPad Software) assuming a one-binding site fitting model, see Table 3 and Table 4.

[2] = molecular target: T2, flTau aggregates (longest isoform of human Tau, 2N4R) (Homo sapiens, UniProt P10636); assay: Full-length Tau (flTau) disaggregation assay by Thioflavin T (ThT); type: biochemical
T2 construct: 35 μM of recombinant full-length (fl) Tau in phosphate-buffered saline (PBS) were aggregated; purchased Biotechne; host or cells: bacteria
T2 sequence (P10636 1-441 isoform P10636-8): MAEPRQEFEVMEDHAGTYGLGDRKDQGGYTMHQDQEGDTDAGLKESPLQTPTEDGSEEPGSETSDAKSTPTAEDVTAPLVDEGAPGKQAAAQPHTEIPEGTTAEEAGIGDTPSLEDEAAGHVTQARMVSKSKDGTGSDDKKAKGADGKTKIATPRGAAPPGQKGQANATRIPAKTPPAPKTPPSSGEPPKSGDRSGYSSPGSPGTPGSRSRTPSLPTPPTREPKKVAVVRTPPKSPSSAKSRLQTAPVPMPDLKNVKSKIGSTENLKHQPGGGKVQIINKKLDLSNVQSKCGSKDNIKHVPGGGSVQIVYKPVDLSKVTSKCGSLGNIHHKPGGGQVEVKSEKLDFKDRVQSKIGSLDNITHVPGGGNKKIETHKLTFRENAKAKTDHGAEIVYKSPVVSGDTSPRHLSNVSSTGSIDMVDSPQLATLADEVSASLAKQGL
Experimental: Full-Length Tau (flTau) Disaggregation Assay by Thioflavin T (ThT)
The longest isoform of human Tau (2N4R; 441 amino acids) was expressed in bacteria and purified (Biotechne). For the Tau disaggregation assay by ThT, 35 μM of recombinant full-length (fl) Tau in phosphate-buffered saline (PBS) were aggregated for 72 hours at 37° C. in presence of 35 μM of heparin (Sigma-Aldrich) and 10 mM of […] (Sigma-Aldrich) under shaking at 1000 RPM. Compound 1 was dissolved in anhydrous dimethyl sulfoxide (DMSO, Sigma-Aldrich) to reach a concentration of 2.5 mM. flTau aggregates and serial dilutions of compound 1 were mixed together in PBS (volume 50 μL) to a final concentration of 60 nM of flTau aggregates and from 20 to 0.0012 μM of Compound 1. The mixture was incubated for 30 minutes at room temperature (RT), then 40 μL of this mixture were transferred into a black 384-well plate assay (Perkin-Elmer) and mixed with 10 μL of 20 μM ThT in 250 mM glycine (both from Sigma-Aldrich) in PBS. Fluorescence (relative fluorescence units; RFU) was measured in monoplicate or duplicate on a Tecan reader (excitation: 440 nm; emission: 485 nm). Percentage of flTau disaggregation was then calculated and the half maximal effective concentration (EC50) was determined using GraphPad Prism version 8 (GraphPad Software) assuming a one-binding site fitting model, see Table 3 and Table 4.

[3] = ThT fluorescence; 60 nM flTau aggregates, 30 minutes at RT; read-out: flTau disaggregation EC50

SMILES | EC50 [1] [µM] | EC50 [2, 3] [nM] | other results
c1cc2c(C3CCN(c4ccc5oc(N6CCOCC6)nc5c4)CC3)c[nH]c2cn1 [Example 54, 5-(4-(1H-pyrrolo[2,3-c]pyridin-3-yl)piperidin-1-yl)-2-morpholinobenzo[d]oxazole] | 10 to 50 |  | 
c1ccc2c(C3CCN(c4cc5nc(N6CCOCC6)sc5cn4)CC3)c[nH]c2c1 [Example 67, 4-(6-(4-(1H-indol-3-yl)piperidin-1-yl)thiazolo[5,4-c]pyridin-2-yl)morpholine] | < 1 |  | 
Cn1cc(C2CC3CN(c4ccc5oc(N6CCOCC6)nc5c4)CC3C2)c2cc(F)cnc21 (stereo not shown) [Example 112, 5-(5-(5-fluoro-1-methyl-1H-pyrrolo[2,3-b]pyridin-3-yl)hexahydrocyclopenta[c]pyrrol-2(1H)-yl)-2-morpholinobenzo[d]oxazole hydrochloride] | 1 to 10 |  | 
c1ccc2c(C3CCN(c4cnc5sc(N6CCOCC6)nc5c4)CC3)n[nH]c2c1 [Example 42, 4-(6-(4-(1H-indazol-3-yl)piperidin-1-yl)thiazolo[5,4-b]pyridin-2-yl)morpholine] | 10 to 50 |  | 
c1ccc2c(C3CCN(c4ccc5nc(N6CCOCC6)sc5n4)CC3)c[nH]c2c1 [Example 108, 4-(5-(4-(1H-indol-3-yl)piperidin-1-yl)thiazolo[5,4-b]pyridin-2-yl)morpholine hydrochloride] | 10 to 50 |  | 
c1ccn2c(C3CCN(c4ccc5nc(N6CCOCC6)oc5c4)CC3)cnc2c1 [Example 59, 6-(4-(imidazo[1,2-a]pyridin-3-yl)piperidin-1-yl)-2-morpholinobenzo[d]oxazole] | 1 to 10 |  | 
c1ccc2c(C3CCN(c4ccc5nc(N6CCOCC6)oc5c4)CC3)c[nH]c2c1 [Example 52, 6-(4-(1H-indol-3-yl)piperidin-1-yl)-2-morpholinobenzo[d]oxazole] | 10 to 50 |  | 
c1ccc2c(C3CCN(c4cc5nc(N6CCOCC6)sc5cn4)CC3)n[nH]c2c1 [Example 66, 4-(6-(4-(1H-indazol-3-yl)piperidin-1-yl)thiazolo[5,4-c]pyridin-2-yl)morpholine] | < 1 |  | 
c1ccc2c(C3CCN(c4cc5oc(N6CCOCC6)nc5cn4)CC3)c[nH]c2c1 [Example 58, 6-(4-(1H-indol-3-yl)piperidin-1-yl)-2-morpholinooxazolo[4,5-c]pyridine] | 10 to 50 |  | 
c1ccc2c(C3CCN(c4ccc5nc(N6CCOCC6)oc5n4)CC3)c[nH]c2c1 [Example 101, 5-(4-(1H-indol-3-yl)piperidin-1-yl)-2-morpholinooxazolo[5,4-b]pyridine] | 10 to 50 |  | 
Cn1cc(C2CCN(c3ccc4oc(N5CCOCC5)nc4c3)C2)c2cc(F)cnc21 (stereo not shown) [Example 34, 5-(3-(5-fluoro-1-methyl-1H-pyrrolo[2,3-b]pyridin-3-yl)pyrrolidin-1-yl)-2-morpholinobenzo[d]oxazole] | 1 to 10 |  | 
O=C(Nc1ccc2nc(N3CCOCC3)oc2c1)c1n[nH]c2ccccc12 [Example 16, N-(2-morpholinobenzo[d]oxazol-6-yl)-1H-indazole-3-carboxamide] | 10 to 50 |  | 
COC1CCN(c2nc3cc(N4CCC(c5n[nH]c6ccccc56)CC4)ccc3o2)CC1 [Example 80, 5-(4-(1H-indazol-3-yl)piperidin-1-yl)-2-(4-methoxypiperidin-1-yl)benzo[d]oxazole] |  | 1000 to 10000 | 
c1ccn2c(C3CCN(c4ccc5oc(N6CCOCC6)nc5c4)CC3)cnc2c1 [Example 25, 5-(4-(imidazo[1,2-a]pyridin-3-yl)piperidin-1-yl)-2-morpholinobenzo[d]oxazole] |  | 1000 to 10000 | 
c1ccc2c(-c3ccn(-c4ccc5oc(N6CCOCC6)nc5c4)n3)c[nH]c2c1 [Example 11, 5-(3-(1H-indol-3-yl)-1H-pyrazol-1-yl)-2-morpholinobenzo[d]oxazole] |  | < 1000 | 
COC1CCN(c2nc3cc(N4CCC(c5cn(C)c6ncc(F)cc56)C4)ccc3o2)CC1 (stereo not shown) [Example 96, 5-(3-(5-fluoro-1-methyl-1H-pyrrolo[2,3-b]pyridin-3-yl)pyrrolidin-1-yl)-2-(4-methoxypiperidin-1-yl)benzo[d]oxazole] |  | 1000 to 10000 | 

SMILES | EC50 [1] [µM] | EC50 [2, 3] [nM] | other results
c1ccc2c(N3CCN(c4ccc5oc(N6CCOCC6)nc5c4)CC3)n[nH]c2c1 [Example 79, 5-(4-(1H-indazol-3-yl)piperazin-1-yl)-2-morpholinobenzo[d]oxazole] |  | < 1000 | 
Cn1cc(C2CCN(c3ccc4oc(N5CCOCC5)nc4c3)CC2)c2cccnc21 [Example 21, 5-(4-(1-methyl-1H-pyrrolo[2,3-b]pyridin-3-yl)piperidin-1-yl)-2-morpholinobenzo[d]oxazole] |  | 1000 to 10000 | 
Fc1cccc2[nH]nc(C3CCN(c4ccc5oc(N6CCOCC6)nc5c4)CC3)c12 [Example 73, 5-(4-(4-fluoro-1H-indazol-3-yl)piperidin-1-yl)-2-morpholinobenzo[d]oxazole] |  | 1000 to 10000 | 
c1ccc2c(C3CCN(c4ccc5oc(N6CCOCC6)nc5c4)C3)c[nH]c2c1 (stereo not shown) [Example 39, 5-(3-(1H-indol-3-yl)pyrrolidin-1-yl)-2-morpholinobenzo[d]oxazole] |  | 1000 to 10000 | 
Cc1cccc2c(C3CCN(c4ccc5oc(N6CCOCC6)nc5c4)CC3)n[nH]c12 [Example 78, 5-(4-(7-methyl-1H-indazol-3-yl)piperidin-1-yl)-2-morpholinobenzo[d]oxazole] |  | 1000 to 10000 | 
Cn1cc(C2CCN(c3ccc4oc(N5CC6CC(C5)O6)nc4c3)C2)c2cc(F)cnc21 (stereo not shown) [Example 99, 3-(5-(3-(5-fluoro-1-methyl-1H-pyrrolo[2,3-b]pyridin-3-yl)pyrrolidin-1-yl)benzo[d]oxazol-2-yl)-6-oxa-3-azabicyclo[3.1.1]heptane] |  |  | EC50 ([2]; read-out: flTau disaggregation EC50; ThT fluorescence; 60 nM flTau aggregates, 30 minutes at RT): 1000 to 10000 nM
Cn1cc(-c2ccc3oc(N4CCOCC4)nc3c2)c2cc(F)cnc21 [Example 3, 5-(5-fluoro-1-methyl-1H-pyrrolo[2,3-b]pyridin-3-yl)-2-morpholinobenzo[d]oxazole] |  | 1000 to 10000 | 
Cn1cc(C2CCN(c3cc4nc(N5CCOCC5)oc4cn3)C2)c2cc(F)cnc21 (stereo not shown) [Example 87, 6-(3-(5-fluoro-1-methyl-1H-pyrrolo[2,3-b]pyridin-3-yl)pyrrolidin-1-yl)-2-morpholinooxazolo[5,4-c]pyridine] |  | 1000 to 10000 | 
Fc1cccc2c(C3CCN(c4ccc5oc(N6CCOCC6)nc5c4)CC3)n[nH]c12 [Example 75, 5-(4-(7-fluoro-1H-indazol-3-yl)piperidin-1-yl)-2-morpholinobenzo[d]oxazole] |  | < 1000 | 
Fc1cnc2c(C3CCN(c4ccc5nc(N6CCOCC6)sc5c4)CC3)c[nH]c2c1 [Example 30, 4-(6-(4-(6-fluoro-1H-pyrrolo[3,2-b]pyridin-3-yl)piperidin-1-yl)benzo[d]thiazol-2-yl)morpholine] |  | < 1000 | 
c1ccc2c(C3CCN(c4cc5nc(N6CCOCC6)oc5cn4)CC3)c[nH]c2c1 [Example 48, 6-(4-(1H-indol-3-yl)piperidin-1-yl)-2-morpholinooxazolo[5,4-c]pyridine] |  | 1000 to 10000 | 
Cn1cc(C2CCN(c3ccc4nc(N5CCOCC5)oc4c3)C2)c2cc(F)cnc21 (stereo not shown) [Example 88, 6-(3-(5-fluoro-1-methyl-1H-pyrrolo[2,3-b]pyridin-3-yl)pyrrolidin-1-yl)-2-morpholinobenzo[d]oxazole] |  | < 1000 | 
Cn1cc(C2CCN(c3ccc4sc(N5CCOCC5)nc4c3)C2)c2cc(F)cnc21 (stereo not shown) [Example 81, 4-(5-(3-(5-fluoro-1-methyl-1H-pyrrolo[2,3-b]pyridin-3-yl)pyrrolidin-1-yl)benzo[d]thiazol-2-yl)morpholine] |  | < 1000 | 
O=C(Nc1ccc2oc(N3CCOCC3)nc2c1)c1n[nH]c2ccccc12 [Example 18, N-(2-morpholinobenzo[d]oxazol-5-yl)-1H-indazole-3-carboxamide] |  | 1000 to 10000 | 
C(#Cc1c[nH]c2ccccc12)c1ccc2oc(N3CCOCC3)nc2c1 [Example 6, 5-((1H-indol-3-yl)ethynyl)-2-morpholinobenzo[d]oxazole] |  | 1000 to 10000 | 
